Measured values reported in US10201586B2 (dated 2019).
“Also recorded” adds a separate entry of the source. Blank lines part the entries; values can stand above or below the compound they belong to. Where a SMILES comes first, the peptide text is derived from it. [ ]: non-standard residue; d: D form. Nle = CCCC[C@H](N)C(=O)O

Experiments:
[1] = plasma stability in mouse plasma; format: in vitro ADME; settings: for remaining at 24 h: read-out: percentage of initial amount of peptide remaining in plasma
[2] = system: human whole blood clot formation; experiment: rotation thromboelastography (ROTEM); settings: Hem A (FVIII-inhibited) human whole blood
[3] = target: T1, TFPI (Homo sapiens, UniProt P10646); experiment: Extrinsic Tenase Inhibition by TFPI | % Inhibit (2.5µM)
[4] = target: T1, TFPI; experiment: Progress Curves of Inhibition of FXa | % Inhibit (2.5µM)
[5] = target: T1, TFPI; experiment: IC50 [nm]
Target sequence in this assay (P10646 29-304 limits assumed): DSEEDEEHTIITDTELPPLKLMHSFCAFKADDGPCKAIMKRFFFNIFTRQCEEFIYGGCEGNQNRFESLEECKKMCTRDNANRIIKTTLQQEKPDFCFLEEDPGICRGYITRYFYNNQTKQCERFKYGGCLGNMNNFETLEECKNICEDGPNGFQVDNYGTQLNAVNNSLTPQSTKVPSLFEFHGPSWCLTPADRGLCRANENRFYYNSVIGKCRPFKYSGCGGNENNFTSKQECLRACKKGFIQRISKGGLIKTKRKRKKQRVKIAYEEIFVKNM

[6] = system: FIX knock-out mice; experiment: tail-tip bleed model; format: in vivo, mouse
Protocol: The amount of blood was determined gravimetrically.
JBT2329 also was tested in a FIX knock-out tail-tip bleed mouse model, which is a clinically-relevant model for hemophilia B human patients. The methodology was substantially similar to that described above with respect to the FVIII knock-out model. Instead of ADVATE, a recombinant FIX (rFIX) served as a reference. Median total blood loss in buffer-treated animals was 935 mg. Median total blood loss in animals treated with a murine anti-TFPI antibody (maTFPI) was 774 mg. Median total blood loss was reduced further when the animals received combined treatment of maTFPI and rFIX.

[7] = pharmacokinetic analysis in mice; format: in vivo, mouse; settings: C57B16 mice, 10 mg/kg i.v., FIG. 31
[8] = plasma stability in human plasma; format: in vitro ADME; settings: human plasma
[9] = target: T1, TFPI; experiment: Extrinsic Tenase Inhibition assay | % Inhibition @ 2.5µM
[10] = target: T1, TFPI; experiment: % Inhibition @ 2.5µM

Compound: CSCC[C@@H]1NC(=O)[C@H](C)NC(=O)[C@@H](NC(=O)[C@H](Cc2c[nH]cn2)NC(=O)[C@H](Cc2c[nH]c3ccccc23)NC(=O)[C@H](CCCCN)NC(=O)[C@H](Cc2ccc(O)cc2)NC(=O)[C@H](Cc2ccc(O)cc2)NC(=O)[C@H](CO)NC(C)=O)CSSC[C@@H](C(=O)N[C@H](C(=O)N[C@@H](Cc2c[nH]c3ccccc23)C(=O)N[C@H](C(=O)N[C@@H](CCCCN)C(=O)N[C@@H](Cc2ccccc2)C(N)=O)C(C)C)C(C)C)NC(=O)[C@H]([C@@H](C)O)NC(=O)[C@H](CCSC)NC(=O)[C@H]([C@@H](C)O)NC(=O)CNC(=O)[C@H](CCCCN)NC(=O)[C@H](CCSC)NC(=O)[C@H](CC(=O)O)NC(=O)[C@H](CCCNC(=N)N)NC1=O [JBT1837]
coagulation parameters [2]: corrected blood coagulation parameters in FVIII-inhibited blood

Compound: Ac-SRYKWFSG-Nle-RD-Nle-KGT-Nle- SSVWVKF-NH2 (SEQ ID NO: 1210) (Ac-SRYKWFSG[Nle]RD[Nle]KGT[Nle]SSVWVKF-NH2; SMILES CCCC[C@H](NC(=O)CNC(=O)[C@H](CO)NC(=O)[C@H](Cc1ccccc1)NC(=O)[C@H](Cc1c[nH]c2ccccc12)NC(=O)[C@H](CCCCN)NC(=O)[C@H](Cc1ccc(O)cc1)NC(=O)[C@H](CCCNC(=N)N)NC(=O)[C@H](CO)NC(C)=O)C(=O)N[C@@H](CCCNC(=N)N)C(=O)N[C@@H](CC(=O)O)C(=O)N[C@@H](CCCC)C(=O)N[C@@H](CCCCN)C(=O)NCC(=O)N[C@H](C(=O)N[C@@H](CCCC)C(=O)N[C@@H](CO)C(=O)N[C@@H](CO)C(=O)N[C@H](C(=O)N[C@@H](Cc1c[nH]c2ccccc12)C(=O)N[C@H](C(=O)N[C@@H](CCCCN)C(=O)N[C@@H](Cc1ccccc1)C(N)=O)C(C)C)C(C)C)[C@@H](C)O) [JBT0418]
Extrinsic Tenase Inhibition by TFPI | % Inhibit ([…]) [3]: 11% | Progress Curves of Inhibition of FXa | % Inhibit ([…]) [4]: 4%

Compound: CCCC[C@H](NC(=O)CNC(=O)[C@H](CO)NC(=O)[C@H](Cc1ccccc1)NC(=O)[C@H](Cc1c[nH]c2ccccc12)NC(=O)[C@H](CCCCN)NC(=O)[C@H](Cc1ccc(O)cc1)NC(=O)[C@H](CCCNC(=N)N)NC(=O)[C@H](CO)NC(C)=O)C(=O)N[C@@H](CCCNC(=N)N)C(=O)N[C@@H](CC(=O)O)C(=O)N[C@@H](CCCC)C(=O)N[C@@H](CCCCN)C(=O)NCC(=O)N[C@H](C(=O)N[C@@H](CCCC)C(=O)N[C@@H](CO)C(=O)N[C@@H](CO)C(=O)N[C@H](C(=O)N[C@@H](Cc1c[nH]c2ccccc12)C(=O)N[C@H](C(=O)N[C@@H](CCCCN)C(=O)N[C@@H](Cc1ccccc1)C(N)=O)C(C)C)C(C)C)[C@@H](C)O [JBT0418 | 1210, Ac-SRYKWF SG-Nle-RD-Nle-KGT-Nle-SS VWVKF-NH2] (Ac-SRYKWFSG[Nle]RD[Nle]KGT[Nle]SSVWVKF-NH2)
IC50 [5]: 43.9 µM

Compound: rFIX: a recombinant FIX (rFIX) served as a reference
Median blood loss ([6]; 10 IU/kg rFIX alone): 888 mg | Median blood loss ([6]; 25 IU/kg rFIX alone): 774 mg

Compound: CSCC[C@H](NC(=O)CNC(=O)[C@H](CO)NC(=O)[C@H](Cc1ccccc1)NC(=O)[C@H](Cc1c[nH]c2ccccc12)NC(=O)[C@H](CCCCN)NC(=O)[C@H](Cc1ccc(O)cc1)NC(=O)[C@H](CCCNC(=N)N)NC(=O)[C@H](CO)NC(C)=O)C(=O)N[C@@H](CCCNC(=N)N)C(=O)N[C@@H](CC(=O)O)C(=O)N[C@@H](CCSC)C(=O)N[C@@H](CCCCN)C(=O)NCC(=O)N[C@H](C(=O)N[C@@H](CCSC)C(=O)N[C@@H](CO)C(=O)N[C@@H](CO)C(=O)N[C@H](C(=O)N[C@@H](Cc1c[nH]c2ccccc12)C(=O)N[C@H](C(=O)N[C@@H](CCCCN)C(=O)N[C@@H](Cc1ccccc1)C(N)=O)C(C)C)C(C)C)[C@@H](C)O [JBT0417 | 1229] (Ac-SRYKWFSGMRDMKGTMSSVWVKF-NH2)
IC50 [5]: > 50 µM

Compound: CCCC[C@H](NC(=O)CNC(=O)[C@H](CO)NC(=O)[C@H](Cc1ccccc1)NC(=O)[C@H](Cc1c[nH]c2ccccc12)NC(=O)[C@H](CCCCN)NC(C)=O)C(=O)N[C@@H](CCCNC(=N)N)C(=O)N[C@@H](CC(=O)O)C(=O)N[C@@H](CCCC)C(=O)N[C@@H](CCCCN)C(=O)NCC(=O)N[C@H](C(=O)N[C@@H](CCCC)C(=O)N[C@@H](CO)C(=O)N[C@@H](CO)C(=O)N[C@H](C(=O)N[C@@H](Cc1c[nH]c2ccccc12)C(=O)N[C@H](C(=O)N[C@@H](CCCCN)C(=O)N[C@@H](Cc1ccccc1)C(N)=O)C(C)C)C(C)C)[C@@H](C)O [JBT0414 | 1205, Ac-KWFSG-Nle-RD-Nle-KGT-Nle-SSVWVKF-NH2] (Ac-KWFSG[Nle]RD[Nle]KGT[Nle]SSVWVKF-NH2)
IC50 [5]: 5.69 µM

Continued, in another order:

remaining at 24 h [1]: < 10%
Compound: CCN1C(=O)CC(SC[C@H](NC(=O)[C@H](CC(C)C)NC(=O)[C@H](CCCCN)NC(=O)[C@H](C)NC(=O)C(C)(C)NC(=O)[C@H](CC(C)C)NC(=O)[C@H](CCCNC(=N)N)NC(=O)[C@H](CCC(=O)O)NC(=O)[C@H](Cc2ccccc2)NC(=O)[C@H](Cc2ccc(O)cc2)NC(=O)CNC(=O)[C@H](CC(=O)O)NC(=O)[C@@H](NC(=O)[C@H](Cc2c[nH]cn2)NC(=O)[C@@H](NC(=O)[C@H](CC(N)=O)NC(=O)[C@H]2CCCN2C(=O)[C@H](CCCCN)NC(=O)[C@H](CO)NC(=O)[C@H](CCC(N)=O)NC(=O)[C@H](Cc2ccccc2)NC(C)=O)C(C)C)C(C)C)C(N)=O)C1=O (stereo partly drawn) [JBT2317]
coagulation parameters [2]: restored coagulation parameters in Hem A blood

plasma concentration after intravenous administration [7]: rapidly cleared from the plasma | half-life [8]: > 120 min | half-life [1]: 50 min
Compound: CC(=O)N[C@@H](Cc1ccccc1)C(=O)N[C@@H](CCC(N)=O)C(=O)N[C@@H](CO)C(=O)N[C@@H](CCCCN)C(=O)NCC(=O)N[C@@H](CC(N)=O)C(=O)N[C@H](C(=O)N[C@@H](Cc1ccccc1)C(=O)N[C@H](C(=O)N[C@@H](CC(=O)O)C(=O)NCC(=O)N[C@@H](Cc1ccc(O)cc1)C(=O)N[C@@H](Cc1ccccc1)C(=O)N[C@@H](CCC(=O)O)C(=O)N[C@@H](CCCNC(=N)N)C(=O)N[C@@H](CC(C)C)C(=O)NC(C)(C)C(=O)N[C@@H](C)C(=O)N[C@@H](CCCCN)C(=O)N[C@@H](CC(C)C)C(N)=O)C(C)C)C(C)C [JBT0740]

Extrinsic Tenase Inhibition assay | % Inhibition @ […] [9]: 2% | % Inhibition @ […] [10]: 6%
Compound: Ac-SGYASFPLAVALHVSKRSKEMALARLYYKTS-NH2 (SEQ ID NO: 2007) [JBT0670]

remaining at 24 h [1]: < 10%
Compound: CC(=O)N[C@@H](Cc1ccccc1)C(=O)N[C@@H](CCC(N)=O)C(=O)N[C@@H](CO)C(=O)N[C@@H](CCCCN)C(=O)N1CCC[C@@H]1C(=O)N[C@@H](CC(N)=O)C(=O)N[C@H](C(=O)N[C@@H](Cc1c[nH]cn1)C(=O)N[C@H](C(=O)N[C@@H](CC(=O)O)C(=O)NCC(=O)N[C@@H](Cc1ccc(O)cc1)C(=O)N[C@@H](Cc1ccccc1)C(=O)N[C@@H](CCC(=O)O)C(=O)N[C@@H](CCCNC(=N)N)C(=O)N[C@@H](CC(C)C)C(=O)NC(C)(C)C(=O)N[C@@H](C)C(=O)N[C@@H](CCCCN)C(=O)N[C@@H](CC(C)C)C(N)=O)C(C)C)C(C)C [JBT1857]
coagulation parameters [2]: restored coagulation parameters in Hem A blood; also recorded: positively impacted blood coagulation parameters, but performed less efficiently than JBT1837

Extrinsic Tenase Inhibition assay | % Inhibition @ […] [9]: 7% | % Inhibition @ […] [10]: 4%
Compound: Ac-SGYASFPLAVQAHVSKRSKEMALARLYYKTS-NH2 (SEQ ID NO: 2019) [JBT0671]

Extrinsic Tenase Inhibition assay | % Inhibition @ […] [9]: 0% | % Inhibition @ […] [10]: 4%
Compound: Ac-SGAASFPLAVQLHVSKRSKEMALARLYYKTS-NH2 (SEQ ID NO: 2131) [JBT0662]
